In the supplement of paper PMC4862054:

Each compound was assayed on MDA-MB-231 (assay: normalised response (% of control), CellTiter-Glo; higher = more viable cells (100 = DMSO, 0 = benzethonium chloride kill control)). Details: incubation time: 72 h.
Method in brief: (§1)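 For each plate, 0.1 % DMSO was set to 100 and a positive kill control to 0. Breast cancer cell lines (20 µl suspension) were seeded into 384-well plates already holding compound at 5 concentrations in 10-fold steps over a 10,000-fold range chosen per compound, and incubated for 72 h. CellTox Green fluorescence at 485/520 nm was read before CellTiter-Glo luminescence, which followed 10 min at room temperature. Each value is the normalised signal at one concentration.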
O=c1[nH]cc(F)c(=O)[nH]1 [Fluorouracil] (1 nM) showed a normalised response of 106%.
For CS(=O)(=O)OCCCCOS(C)(=O)=O [Busulfan] (10 nM), the normalised response was 99.2%.
With CCOc1cc2ncc(C#N)c(Nc3ccc(OCc4ccccn4)c(Cl)c3)c2cc1NC(=O)/C=C/CN(C)C [Neratinib] (0.1 nM) the normalised response was 98.3%.

What follows are compounds tested on HCC1937 in the same assay as above. Details: incubation time: 72 h.
Method in brief: as §1
Compound COc1c(C)cnc(Cn2cnc3c(Cl)nc(N)nc32)c1C [BIIB021] (1 nM) has a normalised response of 103%.
C[C@@]1(C(=O)Nc2ccc(F)nc2)CCCN1c1nc(Nc2cc(C3CC3)n[nH]2)c2cccn2n1 (1 nM) gave a normalised response of 88.7%.
O=c1[nH]c(=O)n([C@H]2C[C@H](O)[C@@H](CO)O2)cc1F [Floxuridine] (1 nM) gave a normalised response of 99.1%.
O=c1[nH]cc(F)c(=O)[nH]1 [Fluorouracil] (1 nM) was tested, and the normalised response was 95.1%.
CS(=O)(=O)OCCCCOS(C)(=O)=O [Busulfan] (10 nM) was tested, and the normalised response was 95.5%.
For CCOc1cc2ncc(C#N)c(Nc3ccc(OCc4ccccn4)c(Cl)c3)c2cc1NC(=O)/C=C/CN(C)C [Neratinib] (0.1 nM), the normalised response was 97.8%.

Each compound was assayed on MFM-223 in the same assay as above. Details: incubation time: 72 h.
Method in brief: as §1
Work on COc1c(C)cnc(Cn2cnc3c(Cl)nc(N)nc32)c1C [BIIB021] (1 nM) yielded a normalised response of 102%.
Compound C[C@@]1(C(=O)Nc2ccc(F)nc2)CCCN1c1nc(Nc2cc(C3CC3)n[nH]2)c2cccn2n1 (1 nM) has a normalised response of 87.7%.
O=c1[nH]c(=O)n([C@H]2C[C@H](O)[C@@H](CO)O2)cc1F [Floxuridine] (1 nM) showed a normalised response of 110%.
O=c1[nH]cc(F)c(=O)[nH]1 [Fluorouracil] (1 nM) showed a normalised response of 110%.
Work on CS(=O)(=O)OCCCCOS(C)(=O)=O [Busulfan] (10 nM) yielded a normalised response of 102%.
For CCOc1cc2ncc(C#N)c(Nc3ccc(OCc4ccccn4)c(Cl)c3)c2cc1NC(=O)/C=C/CN(C)C [Neratinib] (0.1 nM), the normalised response was 108%.

What follows are compounds tested on CAL-120 in the same assay as above. Details: incubation time: 72 h.
Method in brief: as §1
For COc1c(C)cnc(Cn2cnc3c(Cl)nc(N)nc32)c1C [BIIB021] (1 nM), the normalised response was 103%.
Compound C[C@@]1(C(=O)Nc2ccc(F)nc2)CCCN1c1nc(Nc2cc(C3CC3)n[nH]2)c2cccn2n1 (1 nM) has a normalised response of 87.5%.
For O=c1[nH]c(=O)n([C@H]2C[C@H](O)[C@@H](CO)O2)cc1F [Floxuridine] (1 nM), the normalised response was 101%.
O=c1[nH]cc(F)c(=O)[nH]1 [Fluorouracil] (1 nM) showed a normalised response of 108%.
Compound CS(=O)(=O)OCCCCOS(C)(=O)=O [Busulfan] (10 nM) has a normalised response of 92.4%.
For CCOc1cc2ncc(C#N)c(Nc3ccc(OCc4ccccn4)c(Cl)c3)c2cc1NC(=O)/C=C/CN(C)C [Neratinib] (0.1 nM), the normalised response was 98.4%.

The compounds below were run on HDQ-P1 in the same assay as above. Details: incubation time: 72 h.
Method in brief: as §1
COc1c(C)cnc(Cn2cnc3c(Cl)nc(N)nc32)c1C [BIIB021] (1 nM) showed a normalised response of 95.6%.
For C[C@@]1(C(=O)Nc2ccc(F)nc2)CCCN1c1nc(Nc2cc(C3CC3)n[nH]2)c2cccn2n1 (1 nM), the normalised response was 91.2%.
In the case of O=c1[nH]c(=O)n([C@H]2C[C@H](O)[C@@H](CO)O2)cc1F [Floxuridine] (1 nM), the normalised response is reported as 102%.
O=c1[nH]cc(F)c(=O)[nH]1 [Fluorouracil] (1 nM) was tested, and the normalised response was 105%.
CS(=O)(=O)OCCCCOS(C)(=O)=O [Busulfan] (10 nM) was tested, and the normalised response was 95.6%.
CCOc1cc2ncc(C#N)c(Nc3ccc(OCc4ccccn4)c(Cl)c3)c2cc1NC(=O)/C=C/CN(C)C [Neratinib] (0.1 nM) showed a normalised response of 102%.

These compounds were tested on Hs578T in the same assay as above. Details: incubation time: 72 h.
Method in brief: as §1
With COc1c(C)cnc(Cn2cnc3c(Cl)nc(N)nc32)c1C [BIIB021] (1 nM) the normalised response was 106%.
For C[C@@]1(C(=O)Nc2ccc(F)nc2)CCCN1c1nc(Nc2cc(C3CC3)n[nH]2)c2cccn2n1 (1 nM), the normalised response was 95.3%.
O=c1[nH]c(=O)n([C@H]2C[C@H](O)[C@@H](CO)O2)cc1F [Floxuridine] (1 nM) showed a normalised response of 103%.
With O=c1[nH]cc(F)c(=O)[nH]1 [Fluorouracil] (1 nM) the normalised response was 106%.
Work on CS(=O)(=O)OCCCCOS(C)(=O)=O [Busulfan] (10 nM) yielded a normalised response of 101%.
Work on CCOc1cc2ncc(C#N)c(Nc3ccc(OCc4ccccn4)c(Cl)c3)c2cc1NC(=O)/C=C/CN(C)C [Neratinib] (0.1 nM) yielded a normalised response of 106%.

Each compound was assayed on MDA-MB-453 in the same assay as above. Details: incubation time: 72 h.
Method in brief: as §1
For COc1c(C)cnc(Cn2cnc3c(Cl)nc(N)nc32)c1C [BIIB021] (1 nM), the normalised response was 106%.
In the case of C[C@@]1(C(=O)Nc2ccc(F)nc2)CCCN1c1nc(Nc2cc(C3CC3)n[nH]2)c2cccn2n1 (1 nM), the normalised response is reported as 91.9%.
For O=c1[nH]c(=O)n([C@H]2C[C@H](O)[C@@H](CO)O2)cc1F [Floxuridine] (1 nM), the normalised response was 104%.
O=c1[nH]cc(F)c(=O)[nH]1 [Fluorouracil] (1 nM) was tested, and the normalised response was 110%.
CS(=O)(=O)OCCCCOS(C)(=O)=O [Busulfan] (10 nM) showed a normalised response of 108%.
In the case of CCOc1cc2ncc(C#N)c(Nc3ccc(OCc4ccccn4)c(Cl)c3)c2cc1NC(=O)/C=C/CN(C)C [Neratinib] (0.1 nM), the normalised response is reported as 117%.

The compounds below were run on MCF-10A in the same assay as above. Details: incubation time: 72 h.
Method in brief: as §1
In the case of COc1c(C)cnc(Cn2cnc3c(Cl)nc(N)nc32)c1C [BIIB021] (1 nM), the normalised response is reported as 104%.
C[C@@]1(C(=O)Nc2ccc(F)nc2)CCCN1c1nc(Nc2cc(C3CC3)n[nH]2)c2cccn2n1 (1 nM) gave a normalised response of 77.6%.
O=c1[nH]c(=O)n([C@H]2C[C@H](O)[C@@H](CO)O2)cc1F [Floxuridine] (1 nM) was tested, and the normalised response was 115%.
O=c1[nH]cc(F)c(=O)[nH]1 [Fluorouracil] (1 nM) was tested, and the normalised response was 113%.
For CS(=O)(=O)OCCCCOS(C)(=O)=O [Busulfan] (10 nM), the normalised response was 104%.
Compound CCOc1cc2ncc(C#N)c(Nc3ccc(OCc4ccccn4)c(Cl)c3)c2cc1NC(=O)/C=C/CN(C)C [Neratinib] (0.1 nM) has a normalised response of 104%.

These compounds were tested on MDA-MB-436 in the same assay as above. Details: incubation time: 72 h.
Method in brief: as §1
Work on COc1c(C)cnc(Cn2cnc3c(Cl)nc(N)nc32)c1C [BIIB021] (1 nM) yielded a normalised response of 99%.
For C[C@@]1(C(=O)Nc2ccc(F)nc2)CCCN1c1nc(Nc2cc(C3CC3)n[nH]2)c2cccn2n1 (1 nM), the normalised response was 83.9%.
Work on O=c1[nH]c(=O)n([C@H]2C[C@H](O)[C@@H](CO)O2)cc1F [Floxuridine] (1 nM) yielded a normalised response of 132%.
O=c1[nH]cc(F)c(=O)[nH]1 [Fluorouracil] (1 nM) gave a normalised response of 119%.
CS(=O)(=O)OCCCCOS(C)(=O)=O [Busulfan] (10 nM) showed a normalised response of 89.5%.
For CCOc1cc2ncc(C#N)c(Nc3ccc(OCc4ccccn4)c(Cl)c3)c2cc1NC(=O)/C=C/CN(C)C [Neratinib] (0.1 nM), the normalised response was 94.8%.

The compounds below were run on DU-4475 in the same assay as above. Details: incubation time: 72 h.
Method in brief: as §1
For COc1c(C)cnc(Cn2cnc3c(Cl)nc(N)nc32)c1C [BIIB021] (1 nM), the normalised response was 103%.
Compound C[C@@]1(C(=O)Nc2ccc(F)nc2)CCCN1c1nc(Nc2cc(C3CC3)n[nH]2)c2cccn2n1 (1 nM) has a normalised response of 95.2%.
O=c1[nH]c(=O)n([C@H]2C[C@H](O)[C@@H](CO)O2)cc1F [Floxuridine] (1 nM) gave a normalised response of 103%.
For O=c1[nH]cc(F)c(=O)[nH]1 [Fluorouracil] (1 nM), the normalised response was 100%.
